The values that follow come from patent US7851474B2, “Dipiperazinyl ketones and related analogues” (Neurogen Corporation, priority 2005, dated 2010).

The target of one assay is T1, chimeric human H3 receptor (Homo sapiens, UniProt Q9Y5N1, E19D).
T1 construct: made in house; host or cells: Sf9 insect cells (baculovirus infection); P2 membrane preparation
T1 sequence (Q9Y5N1 with tags, fused parts or gaps E19D): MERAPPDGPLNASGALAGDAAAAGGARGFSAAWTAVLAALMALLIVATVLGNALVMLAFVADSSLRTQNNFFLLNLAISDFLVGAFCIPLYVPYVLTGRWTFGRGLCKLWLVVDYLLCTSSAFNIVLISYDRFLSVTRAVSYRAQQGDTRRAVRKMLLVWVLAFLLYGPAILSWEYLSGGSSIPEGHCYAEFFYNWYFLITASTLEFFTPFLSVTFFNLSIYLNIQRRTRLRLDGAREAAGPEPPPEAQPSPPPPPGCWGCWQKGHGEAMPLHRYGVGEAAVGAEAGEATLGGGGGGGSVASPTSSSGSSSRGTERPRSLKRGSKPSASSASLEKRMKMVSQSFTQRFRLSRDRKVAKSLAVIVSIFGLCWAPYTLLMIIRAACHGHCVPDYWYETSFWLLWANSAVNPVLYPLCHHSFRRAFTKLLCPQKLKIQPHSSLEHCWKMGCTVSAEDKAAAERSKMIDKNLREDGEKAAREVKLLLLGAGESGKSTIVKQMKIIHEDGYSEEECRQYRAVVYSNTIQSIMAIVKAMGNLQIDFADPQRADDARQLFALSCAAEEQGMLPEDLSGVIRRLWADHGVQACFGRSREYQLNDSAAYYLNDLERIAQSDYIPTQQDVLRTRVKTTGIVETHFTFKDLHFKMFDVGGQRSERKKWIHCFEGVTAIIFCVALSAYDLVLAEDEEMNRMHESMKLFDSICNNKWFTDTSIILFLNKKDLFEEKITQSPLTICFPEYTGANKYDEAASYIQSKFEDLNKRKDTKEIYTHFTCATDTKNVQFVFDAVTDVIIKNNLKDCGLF
Put plainly: Chimeric human H3 receptor GTP binding assay (agonist-stimulated GTP-gamma35S binding, Example 7).
Details: not given
The assay is classed as biochemical. The text has this:
This Example illustrates a representative assay for evaluating agonist-stimulated GTP-gamma^35S binding (“GTP binding”) activity. […] This agonist-stimulated GTP binding activity can also be used to detect partial agonism mediated by antagonist compounds. A compound analyzed in this assay is referred to herein as a “test compound.”
Four independent baculoviral stocks (one directing the expression of the chimeric human H3 receptor and three directing the expression of each of the three subunits of a heterotrimeric G-protein) are used to infect a culture of Sf9 cells as described above. P2 membranes are prepared as described above, and agonist-stimulated GTP binding on the P2 membranes is assessed using histamine (Sigma Chemical Co., St. Louis, Mo.) as agonist in order to ascertain that the receptor/G-protein-alpha-beta-gamma combination(s) yield a functional response as measured by GTP binding. P2 membranes are resuspended by Dounce homogenization (tight pestle) in GTP binding assay buffer (50 mM Tris pH 7.4, 120 mM NaCl, 5 mM MgCl2, 2 mM EGTA, 1 mg/ml BSA, 0.2 mg/ml bacitracin, 0.02 mg/ml aprotinin, 0.01 mg/ml saponin, 10 μM GDP) and added to assay tubes at a concentration of 35 μg protein/reaction tube. […] In competition experiments, non-radiolabeled test compounds are added to separate reactions at concentrations ranging from 10^−10 M to 10^−6 M along with 1 μM histamine to yield a final volume of 0.20 ml.
Neutral antagonists are antagonists that are substantially free of inherent agonist activity, and include those test compounds that reduce the histamine-stimulated GTP binding activity towards, but not below, baseline levels. In contrast, in the absence of added histamine, inverse agonists reduce the GTP binding activity of the receptor-containing membranes below baseline.
After a 60-min incubation at room temperature, reactions are terminated by vacuum filtration over WHATMAN GF/C filters (pre-soaked in wash buffer, 0.1% BSA) followed by washing with ice-cold wash buffer (50 mM Tris pH 7.4, 120 mM NaCl). The amount of receptor-bound (and thereby membrane-bound) GTP-gamma^35S is determined by measuring the filter-bound radioactivity, preferably by liquid scintillation spectrometry of the washed filters. […] Data is expressed as percent above basal (baseline). The results of GTP binding experiments are analyzed using SIGMAPLOT software (SPSS Inc., Chicago, Ill.).
IC50 values are calculated by non-linear regression analysis of dose-response curves using Kaleidograph (Synergy Software, Reading, Pa.).
(In general: Binding of GTPγS marks nucleotide exchange on a G protein.)
Usually Ki stands for the equilibrium dissociation constant of an inhibitor or competing ligand from its target. With `CCN1CCN(C(=O)CN2CCN(c3ccc(Cl)cc3)CC2)CC1` [Compound 359, 1-(4-chlorophenyl)-4-[2-(4-ethylpiperazin-1-yl)-2-oxoethyl]piperazine], the Ki is below 1000 nM.

Still in this assay, the particulars now being: assay of Example 7; symbol * in column headed Ki of Table II; read-out: Ki.
Regarding `CC(=O)c1ccc(N2CCN(CC(=O)N3CCN(C4CCC4)CC3)CC2=O)cc1` [Compound 333, 1-(4-acetylphenyl)-4-[2-(4-cyclobutylpiperazin-1-yl)-2-oxoethyl]piperazin-2-one], the inhibition constant (Ki) was below 1000 nM.

On to `COc1cc(N2CCN(CC(=O)N3CCN(C4CCCC4)CC3)CC2)ccc1Br` [Compound 334, 1-(4-bromo-3-methoxyphenyl)-4-[2-(4-cyclopentylpiperazin-1-yl)-2-oxoethyl]piperazine], for which the Ki was below 1000 nM.

Turning to `CCN1CCN(C(=O)CN2CCN(c3ccc(Br)c(OC)c3)CC2)CC1` [Compound 335, 1-(4-bromo-3-methoxyphenyl)-4-[2-(4-ethylpiperazin-1-yl)-2-oxoethyl]piperazine], the Ki is below 1000 nM.

Turning to `COc1cc(N2CCN(CC(=O)N3CCN(C(C)C)CC3)CC2)ccc1Br` [Compound 336, 1-(4-bromo-3-methoxyphenyl)-4-[2-(4-isopropylpiperazin-1-yl)-2-oxoethyl]piperazine], the Ki was below 1000 nM.

For the compound `CCC(C)N1CCN(C(=O)CN2CCN(c3ccc(Br)c(OC)c3)CC2)CC1` (centres unmarked) [Compound 337, 1-(4-bromo-3-methoxyphenyl)-4-[2-(4-sec-butylpiperazin-1-yl)-2-oxoethyl]piperazine], the Ki is below 1000 nM.

Take `O=C(CN1CCN(c2ccc(Br)cc2)CC1)N1CCN(C2CCCCC2)CC1` [Compound 338, 1-(4-bromophenyl)-4-[2-(4-cyclohexylpiperazin-1-yl)-2-oxoethyl]piperazine]: the Ki was below 1000 nM.

With `CC(C)N1CCN(C(=O)CN2CCN(c3ccc(Br)cc3)CC2)CC1` [Compound 339, 1-(4-bromophenyl)-4-[2-(4-isopropylpiperazin-1-yl)-2-oxoethyl]piperazine], the Ki was below 1000 nM.

For `O=C(CN1CCN(c2ccc(-c3ccc(Cl)cc3F)cc2)CC1)N1CCN(C2CCC2)CC1` [Compound 341, 1-(4′-chloro-2′-fluorobiphenyl-4-yl)-4-[2-(4-cyclobutylpiperazin-1-yl)-2-oxoethyl]piperazine], the Ki was below 1000 nM.

Turning to `O=C(CN1CCN(c2ccc(-c3ccc(Cl)c(F)c3)cc2)CC1)N1CCN(C2CCC2)CC1` [Compound 343, 1-(4′-chloro-3′-fluorobiphenyl-4-yl)-4-[2-(4-cyclobutylpiperazin-1-yl)-2-oxoethyl]piperazine], the Ki was below 1000 nM.

For `COc1cc(N2CCN(CC(=O)N3CCN(C4CCC4)CC3)CC2)ccc1Cl` [Compound 344, 1-(4-chloro-3-methoxyphenyl)-4-[2-(4-cyclobutylpiperazin-1-yl)-2-oxoethyl]piperazine], the Ki was below 1000 nM.

On to `COc1cc(N2CCN(CC(=O)N3CCN(C4CCCCC4)CC3)CC2)ccc1Cl` [Compound 345, 1-(4-chloro-3-methoxyphenyl)-4-[2-(4-cyclohexylpiperazin-1-yl)-2-oxoethyl]piperazine], for which the Ki is below 1000 nM.

As to `COc1cc(N2CCN(CC(=O)N3CCN(C4CCCC4)CC3)CC2)ccc1Cl` [Compound 346, 1-(4-chloro-3-methoxyphenyl)-4-[2-(4-cyclopentylpiperazin-1-yl)-2-oxoethyl]piperazine], the Ki is below 1000 nM.

`COc1cc(N2CCN(CC(=O)N3CCN(C(C)C)CC3)CC2)ccc1Cl` [Compound 347, 1-(4-chloro-3-methoxyphenyl)-4-[2-(4-isopropylpiperazin-1-yl)-2-oxoethyl]piperazine]: the Ki was below 1000 nM.

For `Cc1cc(N2CCN(CC(=O)N3CCN(C4CCC4)CC3)CC2)ccc1Cl` [Compound 349, 1-(4-chloro-3-methylphenyl)-4-[2-(4-cyclobutylpiperazin-1-yl)-2-oxoethyl]piperazine], the Ki was below 1000 nM.

For `Cc1cc(N2CCN(CC(=O)N3CCN(C4CCCCC4)CC3)CC2)ccc1Cl` [Compound 350, 1-(4-chloro-3-methylphenyl)-4-[2-(4-cyclohexylpiperazin-1-yl)-2-oxoethyl]piperazine], the Ki is below 1000 nM.

For `Cc1cc(N2CCN(CC(=O)N3CCN(C4CCCC4)CC3)CC2)ccc1Cl` [Compound 351, 1-(4-chloro-3-methylphenyl)-4-[2-(4-cyclopentylpiperazin-1-yl)-2-oxoethyl]piperazine], the Ki is below 1000 nM.

With `CCN1CCN(C(=O)CN2CCN(c3ccc(Cl)c(C)c3)CC2)CC1` [Compound 352, 1-(4-chloro-3-methylphenyl)-4-[2-(4-ethylpiperazin-1-yl)-2-oxoethyl]piperazine], the Ki is below 1000 nM.

With `Cc1cc(N2CCN(CC(=O)N3CCN(C(C)C)CC3)CC2)ccc1Cl` [Compound 353, 1-(4-chloro-3-methylphenyl)-4-[2-(4-isopropylpiperazin-1-yl)-2-oxoethyl]piperazine], the Ki is below 1000 nM.

For the compound `O=C(CN1CCN(c2ccc(-c3ccc(Cl)cc3)cc2)CC1)N1CCN(C2CCC2)CC1` [Compound 355, 1-(4′-chlorobiphenyl-4-yl)-4-[2-(4-cyclobutylpiperazin-1-yl)-2-oxoethyl]piperazine], the Ki was below 1000 nM.

Regarding `O=C(CN1CCN(c2ccc(Cl)cc2)CC1)N1CCN(C2CCC2)CC1` [Compound 356], the Ki was below 1000 nM.

As to `O=C(CN1CCN(c2ccc(Cl)cc2)CC1)N1CCN(C2CCCCC2)CC1` [Compound 357, 1-(4-chlorophenyl)-4-[2-(4-cyclohexylpiperazin-1-yl)-2-oxoethyl]piperazine], the inhibition constant Ki is below 1000 nM.

Turning to `O=C(CN1CCN(c2ccc(Cl)cc2)CC1)N1CCN(C2CCCC2)CC1` [Compound 358, 1-(4-chlorophenyl)-4-[2-(4-cyclopentylpiperazin-1-yl)-2-oxoethyl]piperazine], the Ki was below 1000 nM.

Consider `CC(C)N1CCN(C(=O)CN2CCN(c3ccc(Cl)cc3)CC2)CC1` [Compound 360, 1-(4-chlorophenyl)-4-[2-(4-isopropylpiperazin-1-yl)-2-oxoethyl]piperazine], for which the Ki is below 1000 nM.

Turning to `CC(C)N1CCN(C(=O)CN2CCN(c3ccc(F)cc3)CC2)CC1` [Compound 361, 1-(4-fluorophenyl)-4-[2-(4-isopropylpiperazin-1-yl)-2-oxoethyl]piperazine], the Ki was below 1000 nM.

`CC(=O)c1cnc(N2CCN(CC(=O)N3CCN(C4CCC4)CC3)CC2)cn1` [Compound 362, 1-(5-{4-[2-(4-cyclobutylpiperazin-1-yl)-2-oxoethyl]piperazin-1-yl}pyrazin-2-yl)ethanone]: the Ki was below 1000 nM.

With `CC(=O)c1ccc(N2C(=O)C3(CCN(CC(=O)N4CCN(C5CCC5)CC4)CC3)c3ccccc32)nc1` [Compound 363, 1-(5-acetylpyridin-2-yl)-1′-[2-(4-cyclobutylpiperazin-1-yl)-2-oxoethyl]spiro[indole-3,4′-piperidin]-2(1H)-one], the Ki was below 1000 nM.

Regarding `COc1ccc(Cl)cc1-c1ccc(N2CCN(CC(=O)N3CCN(C4CCC4)CC3)CC2)cc1` [Compound 365, 1-(5′-chloro-2′-methoxybiphenyl-4-yl)-4-[2-(4-cyclobutylpiperazin-1-yl)-2-oxoethyl]piperazine], the inhibition constant (Ki) is below 1000 nM.

Consider `COc1ccc(Cl)cc1N1CCN(CC(=O)N2CCN(C3CCC3)CC2)CC1` [Compound 366, 1-(5-chloro-2-methoxyphenyl)-4-[2-(4-cyclobutylpiperazin-1-yl)-2-oxoethyl]piperazine], for which the Ki was below 1000 nM.
